From patent US20230002372A1, “AZAINDOLE CARBOXAMIDE COMPOUNDS FOR THE TREATMENT OF MYCOBACTERIAL INFECTIONS” (THE GLOBAL ALLIANCE FOR TB DRUG DEVELOPMENT, INC., priority 2019, published 2023)
≈ marks a conversion by molar mass, not a printed value.

Tested on: M tb H37Rv
Assay: MIC determination against M tb H37Rv (green fluorescent protein reporter assay; MIC-MABA)
Type: cell-based, Mycobacterium tuberculosis
Settings: Mycobacterium tuberculosis, H37RV, 240 h, read-out: M. TB H37Rv: MIC-MABA: MIC, M. tb H37Rv; 7H9 broth; 10 days exposure; MIC = lowest concentration inhibiting fluorescence by 90%

Row | SMILES | MIC [mg/L]
1 | C[Si]1(C)CCC(NC(=O)c2cc3c(C(F)(F)F)ccnc3[nH]2)CC1 [MPL-111, N-(1,1-dimethylsilinan-4-yl)-4-(trifluoromethyl)-1H-pyrrolo[2,3-b]pyridine-2-carboxamide] | 0.0095 (≈ 0.0267 µM)
2 | Cc1cc2cc(C(=O)N[C@H]3C[C@H]4C[C@@H]([C@@H]3C)C4(C)C)[nH]c2c(F)n1 [MPL-122, 7-fluoro-5-methyl-N-[(1S,2S,3S,5R)-2,6,6-trimethylnorpinan-3-yl]-1H-pyrrolo[2,3-c]pyridine-2-carboxamide] | 3.1 (≈ 9.41 µM)
3 | Cc1cc2cc(C(=O)NC3CCC(C)(C)CC3)[nH]c2cn1 [MPL-125, N-(4,4-dimethylcyclohexyl)-5-methyl-1H-pyrrolo[2,3-c]pyridine-2-carboxamide] | 3.1 (≈ 10.9 µM)
4 | C[C@@H]1[C@@H](NC(=O)c2cc3cc(Cl)ncc3[nH]2)C[C@H]2C[C@@H]1C2(C)C [MPL-126, 5-chloro-N-[(1S,2S,3S,5R)-2,6,6-trimethylnorpinan-3-yl]-1H-pyrrolo[2,3-c]pyridine-2-carboxamide] | 3.1 (≈ 9.34 µM)
5 | C[C@@H]1[C@@H](NC(=O)c2cc3cc(F)ncc3[nH]2)C[C@H]2C[C@@H]1C2(C)C [MPL-128, 5-fluoro-N-[(1S,2S,3S,5R)-2,6,6-trimethylnorpinan-3-yl]-1H-pyrrolo[2,3-c]pyridine-2-carboxamide] | 2.3 (≈ 7.29 µM)
6 | CC1(C)CCC(NC(=O)c2cc3cc(F)ncc3[nH]2)CC1 [MPL-129, N-(4,4-dimethylcyclohexyl)-5-fluoro-1H-pyrrolo[2,3-c]pyridine-2-carboxamide] | 0.5 (≈ 1.73 µM)
7 | Cc1nc(F)cc2cc(C(=O)N[C@H]3C[C@H]4C[C@@H]([C@@H]3C)C4(C)C)[nH]c12 [MPL-134, 5-fluoro-7-methyl-N-[(1S,2S,3S,5R)-2,6,6-trimethylnorpinan-3-yl]-1H-pyrrolo[2,3-c]pyridine-2-carboxamide] | 3.1 (≈ 9.41 µM)
8 | C[C@@H]1[C@@H](NC(=O)c2cc3c(F)c(Cl)ncc3[nH]2)C[C@H]2C[C@@H]1C2(C)C [MPL-138, 5-chloro-4-fluoro-N-[(1S,2S,3S,5R)-2,6,6-trimethylnorpinan-3-yl]-1H-pyrrolo[2,3-c]pyridine-2-carboxamide] | 2.9 (≈ 8.29 µM)
9 | CC1(C)CCC(NC(=O)c2cc3c(F)c(Cl)ncc3[nH]2)CC1 [MPL-139, 5-chloro-N-(4,4-dimethylcyclohexyl)-4-fluoro-1H-pyrrolo[2,3-c]pyridine-2-carboxamide] | 0.24 (≈ 0.741 µM)
10 | Cc1ncc2[nH]c(C(=O)N[C@H]3C[C@H]4C[C@@H]([C@@H]3C)C4(C)C)cc2c1F [MPL-140, 4-fluoro-5-methyl-N-[(1S,2S,3S,5R)-2,6,6-trimethylnorpinan-3-yl]-1H-pyrrolo[2,3-c]pyridine-2-carboxamide] | 1.3 (≈ 3.95 µM)
11 | Cc1ncc2[nH]c(C(=O)NC3CCC(C)(C)CC3)cc2c1F [MPL-141, N-(4,4-dimethylcyclohexyl)-4-fluoro-5-methyl-1H-pyrrolo[2,3-c]pyridine-2-carboxamide] | 0.29 (≈ 0.956 µM)
12 | O=C(NC1CC2CCC(C2)C1)c1cc2c(F)ccnc2[nH]1 (stereo not drawn) [MPL-157, N-(3-bicyclo[3.2.1]octanyl)-4-fluoro-1H-pyrrolo[2,3-b]pyridine-2-carboxamide] | 2.6 (≈ 9.05 µM)
13 | CC1(C)C=CC(NC(=O)c2cc3c(F)ccnc3[nH]2)CC1 (stereo not drawn) [MPL-160, N-(4,4-dimethylcyclohex-2-en-1-yl)-4-fluoro-1H-pyrrolo[2,3-b]pyridine-2-carboxamide] | 0.77 (≈ 2.68 µM)
14 | O=C(NC1CCC2(CC1)CC2)c1cc2c(Cl)cncc2[nH]1 [MPL-163, 4-chloro-N-spiro[2.5]octan-6-yl-1H-pyrrolo[2,3-c]pyridine-2-carboxamide] | 0.64 (≈ 2.11 µM)
15 | O=C(NC1CCC2(CC1)CC2(F)F)c1cc2c(Cl)cncc2[nH]1 (stereo not drawn) [MPL-164, 4-chloro-N-(1,1-difluorospiro[2.5]octan-6-yl)-1H-pyrrolo[2,3-c]pyridine-2-carboxamide] | 0.35 (≈ 1.03 µM)
16 | O=C(NC1CC2CCC(C2)C1)c1cc2c(Cl)cncc2[nH]1 (stereo not drawn) [MPL-166, N-(3-bicyclo[3.2.1]octanyl)-4-chloro-1H-pyrrolo[2,3-c]pyridine-2-carboxamide] | 0.39 (≈ 1.28 µM)
17 | O=C(NC12CCC(CC1)CC2)c1cc2c(Cl)cncc2[nH]1 [MPL-170, N-(4-bicyclo[2.2.2]octanyl)-4-chloro-1H-pyrrolo[2,3-c]pyridine-2-carboxamide] | 0.1 (≈ 0.329 µM)
18 | Cc1c(C(=O)N[C@H]2C[C@H]3C[C@@H]([C@@H]2C)C3(C)C)[nH]c2nccc(F)c12 [MPL-174, 4-fluoro-3-methyl-N-[(1S,2S,3S,5R)-2,6,6-trimethylnorpinan-3-yl]-1H-pyrrolo[2,3-b]pyridine-2-carboxamide] | 0.19 (≈ 0.577 µM)
19 | CC1(C)C2CCC1(C)C(NC(=O)c1cc3c(Cl)cncc3[nH]1)C2 (stereo not drawn) [MPL-189, 4-chloro-N-(1,7,7-trimethylnorbornan-2-yl)-1H-pyrrolo[2,3-c]pyridine-2-carboxamide] | 0.095 (≈ 0.286 µM)
20 | CC1(C)C2CCC1(C)C(NC(=O)c1cc3c(C(F)(F)F)cncc3[nH]1)C2 (stereo not drawn) [MPL-190, 4-(trifluoromethyl)-N-(1,7,7-trimethylnorbornan-2-yl)-1H-pyrrolo[2,3-c]pyridine-2-carboxamide] | 0.24 (≈ 0.657 µM)

Row | SMILES | MIC [mg/L]
21 | C[Si]1(C)CCC(NC(=O)c2cc3c(F)cncc3[nH]2)CC1 [MPL-191, N-(1,1-dimethylsilinan-4-yl)-4-fluoro-1H-pyrrolo[2,3-c]pyridine-2-carboxamide] | 0.0087 (≈ 0.0285 µM)
22 | C[Si]1(C)CCC(NC(=O)c2cc3c(Cl)cncc3[nH]2)CC1 [MPL-192, 4-chloro-N-(1,1-dimethylsilinan-4-yl)-1H-pyrrolo[2,3-c]pyridine-2-carboxamide] | 0.0093 (≈ 0.0289 µM)
23 | COc1cc(F)cc2[nH]c(C(=O)NC3CC[Si](C)(C)CC3)cc12 [MPL-196, N-(1,1-dimethylsilinan-4-yl)-6-fluoro-4-methoxy-1H-indole-2-carboxamide] | 0.0048 (≈ 0.0144 µM)
24 | COc1cncc2[nH]c(C(=O)NC3CC[Si](C)(C)CC3)cc12 [MPL-202, N-(1,1-dimethylsilinan-4-yl)-4-methoxy-1H-pyrrolo[2,3-c]pyridine-2-carboxamide] | 0.11 (≈ 0.346 µM)
25 | Cc1cc(F)c2cc(C(=O)NC3CC[Si](C)(C)CC3)[nH]c2n1 [MPL-207, N-(1,1-dimethylsilinan-4-yl)-4-fluoro-6-methyl-1H-pyrrolo[2,3-b]pyridine-2-carboxamide] | 0.0045 (≈ 0.0141 µM)
26 | Cc1c(C(=O)NC2CC[Si](C)(C)CC2)[nH]c2nccc(F)c12 [MPL-210, N-(1,1-dimethylsilinan-4-yl)-4-fluoro-3-methyl-1H-pyrrolo[2,3-b]pyridine-2-carboxamide] | 0.058 (≈ 0.182 µM)
27 | CC1(C)[C@H]2C[C@H](NC(=O)c3cc4c(F)ccnc4[nH]3)[C@](C)(O)[C@@H]1C2 [MPL-213, 4-fluoro-N-[(1R,2R,3S,5R)-2-hydroxy-2,6,6-trimethyl-norpinan-3-yl]-1H-pyrrolo[2,3-b]pyridine-2-carboxamide] | 0.046 (≈ 0.139 µM)
28 | CC1(C)[C@H]2C[C@H](NC(=O)c3cc4c(C#N)ccnc4[nH]3)[C@](C)(O)[C@@H]1C2 [MPL-215, 4-cyano-N-[(1R,2R,3S,5R)-2-hydroxy-2,6,6-trimethyl-norpinan-3-yl]-1H-pyrrolo[2,3-b]pyridine-2-carboxamide] | 1.4 (≈ 4.14 µM)
29 | CC1(C)[C@H]2C[C@H](NC(=O)c3cc4c(C(F)(F)F)ccnc4[nH]3)[C@](C)(O)[C@@H]1C2 [MPL-216, N-[(1R,2R,3S,5R)-2-hydroxy-2,6,6-trimethyl-norpinan-3-yl]-4-(trifluoromethyl)-1H-pyrrolo[2,3-b]pyridine-2-carboxamide] | 0.041 (≈ 0.107 µM)
30 | Cc1cc(Cl)c2cc(C(=O)N[C@H]3C[C@H]4C[C@H](C4(C)C)[C@@]3(C)O)[nH]c2n1 [MPL-218, 4-chloro-N-[(1R,2R,3S,5R)-2-hydroxy-2,6,6-trimethyl-norpinan-3-yl]-6-methyl-1H-pyrrolo[2,3-b]pyridine-2-carboxamide] | 0.037 (≈ 0.102 µM)
31 | CC1(C)[C@H]2C[C@H](NC(=O)c3cc4c(F)c(F)cnc4[nH]3)[C@](C)(O)[C@@H]1C2 [MPL-219, 4,5-difluoro-N-[(1R,2R,3S,5R)-2-hydroxy-2,6,6-trimethyl-norpinan-3-yl]-1H-pyrrolo[2,3-b]pyridine-2-carboxamide] | 0.9 (≈ 2.58 µM)
32 | CC1(C)[C@H]2C[C@H](NC(=O)c3cc4c(F)cncc4[nH]3)[C@](C)(O)[C@@H]1C2 [MPL-221, 4-fluoro-N-[(1R,2R,3S,5R)-2-hydroxy-2,6,6-trimethyl-norpinan-3-yl]-1H-pyrrolo[2,3-c]pyridine-2-carboxamide] | 0.2 (≈ 0.604 µM)
33 | CC1(C)[C@H]2C[C@H](NC(=O)c3cc4c(Cl)cncc4[nH]3)[C@](C)(O)[C@@H]1C2 [MPL-222, 4-chloro-N-[(1R,2R, 3S, 5R)-2-hydroxy-2,6,6-trimethyl-norpinan-3-yl]-1H-Pyrrolo[2,3-c]pyridine-2-carboxamide] | 0.19 (≈ 0.546 µM)
34 | Cc1c(C(=O)NC2CC[Si](C)(C)CC2)[nH]c2cncc(F)c12 [MPL-226, N-(1,1-dimethylsilinan-4-yl)-4-fluoro-3-methyl-1H-pyrrolo[2,3-c]pyridine-2-carboxamide] | 0.75 (≈ 2.35 µM)
35 | Cc1nc(Cl)c(F)c2cc(C(=O)NC3CC[Si](C)(C)CC3)[nH]c12 [MPL-236, 5-chloro-N-(1,1-dimethylsilinan-4-yl)-4-fluoro-7-methyl-1H-pyrrolo[2,3-c]pyridine-2-carboxamide] | 0.18 (≈ 0.509 µM)
36 | Cc1nc2[nH]c(C(=O)NC3CC[Si](C)(C)CC3)cc2c(C)c1F [MPL-237, N-(1,1-dimethylsilinan-4-yl)-5-fluoro-4,6-dimethyl-1H-pyrrolo[2,3-b]pyridine-2-carboxamide] | 0.047 (≈ 0.141 µM)
37 | Cc1cc(F)c2cc(C(=O)NC3CC[Si]4(CCCC4)CC3)[nH]c2n1 [MPL-253, 4-fluoro-6-methyl-N-(5-silaspiro[4.5]decan-8-yl)-1H-pyrrolo[2,3-b]pyridine-2-carboxamide] | 0.056 (≈ 0.162 µM)
38 | O=C(NC1CC[Si]2(CCCC2)CC1)c1cc2c(F)cncc2[nH]1 [MPL-254, 4-fluoro-N-(5-silaspiro[4.5]decan-8-yl)-1H-pyrrolo[2,3-c]pyridine-2-carboxamide] | 0.2 (≈ 0.603 µM)
39 | O=C(NC1CC[Si]2(CCCCC2)CC1)c1cc2c(F)cncc2[nH]1 [MPL-259, 4-fluoro-N-(6-silaspiro[5.5]undecan-3-yl)-1H-pyrrolo[2,3-c]pyridine-2-carboxamide] | 0.054 (≈ 0.156 µM)
